# Assays:
# [1] = system: MV4-11 cells; assay: MV4-11 cellular proliferative assay, Assay Format A (CellTiter-Glo, 120 h); format: cell-based; settings: Homo sapiens, Assay format A, 120 h, read-out: IC50 (MV4-11 cellular proliferative assay)
# Summary of the method: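 MV4-11 cells seeded at 50 cells/well and exposed for 120 h to compound (10 semi-log dilutions, top 30 μM) or DMSO. Viability by CellTiter-Glo luminescence, normalised to DMSO and reference-compound wells; AC50 from Hill fit.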
# [2] = target: T1, MLLT1 (Mus musculus, UniProt F6UGX7); assay: MLLT1 degradation assay in NIH/3T3 cells (JESS, 5 h); format: cell-based
# T1 construct: endogenous in cells; host or cells: NIH/3T3 (ATCC CRL-1658)
# T1 sequence (F6UGX7 1-547): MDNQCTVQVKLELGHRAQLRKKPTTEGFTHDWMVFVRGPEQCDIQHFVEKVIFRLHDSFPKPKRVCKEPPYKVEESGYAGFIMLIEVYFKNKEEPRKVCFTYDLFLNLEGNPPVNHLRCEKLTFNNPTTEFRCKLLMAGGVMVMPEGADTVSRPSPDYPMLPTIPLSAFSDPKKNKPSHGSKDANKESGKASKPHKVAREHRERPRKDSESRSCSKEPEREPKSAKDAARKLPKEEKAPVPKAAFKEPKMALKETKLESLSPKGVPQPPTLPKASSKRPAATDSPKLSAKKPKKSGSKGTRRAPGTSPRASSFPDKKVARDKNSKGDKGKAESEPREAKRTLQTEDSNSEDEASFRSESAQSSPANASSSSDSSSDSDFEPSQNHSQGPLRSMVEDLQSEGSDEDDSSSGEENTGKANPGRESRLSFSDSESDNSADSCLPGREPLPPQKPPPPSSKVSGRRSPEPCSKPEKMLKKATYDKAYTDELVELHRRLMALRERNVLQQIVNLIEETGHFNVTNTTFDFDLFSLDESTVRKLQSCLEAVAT
# Procedure: MLLT1 degradation efficacy of compounds was tested in an automated chemiluminescent detection system (JESS, Cat #004-650). NIH/3T3 (#CRL-1658, ATCC) were seeded at a density of 0.5 million cells/well in a cell culture treated 6-well cell culture plate in 2 mL of complete medium (DMEM+10% FBS+1× Penicillin-Streptomycin) and incubated at 37° C., 5% CO2. The next day, 10 mM DMSO stocks were prepared, and cells were treated with eight concentrations of test compound, starting from 100 nM, 5-fold dilution, at a final DMSO concentration of 0.1% and incubated for 5 h at 37° C., 5% CO2. Post incubation, cells were washed with HBSS and lysed in 70 μL of RIPA buffer supplemented with Protease inhibitors (sc-24948; Santa Cruz). Protein estimation was done using BCA protein assay kit (23228; Pierce). […] Post run, data was analysed using “Compass for SW” software for chemiluminescent detection. […]
# MLLT3 degradation efficacy of compounds was tested in an automated chemiluminescent detection system (JESS, Cat #004-650). […] Post run, data was analysed using “Compass for SW” software for chemiluminescent detection. […]
smiles,measurement,setting,value
"Cc1nn(CCCCCCCC#Cc2cccc3c2CN(C2CCC(=O)NC2=O)C3=O)c2cc(C(=O)Nc3cc4[nH]c([C@H]5CCCN5C)cc4cn3)ccc12 (mixture of isomers) [Example 1, 1-(9-(2-(2,6-dioxopiperidin-3-yl)-1-oxoisoindolin-4-yl)non-8-yn-1-yl)-3-methyl-N-(2-((R)-1-methylpyrrolidin-2-yl)-1H-pyrrolo[3,2-c]pyridin-6-yl)-1H-indazole-6-carboxamide]",IC50,[1],< 100 nM
same,Dmax,"[2]; NIH3T3, read-out: MLLT1 Dmax in NIH/3T3 cells",90%
same,DC50,"[2]; NIH/3T3 cells, 5 h",1.4 nM

# Source: patent publication US20260199484A1, “PROTAC DEGRADERS OF MLLT1 AND/OR MLLT3” (DARK BLUE THERAPEUTICS LTD, priority 2024, published 2026)
